Where two headings read alike, the source gives them in different places.
Biological target: T1, CCR2 (Homo sapiens, UniProt P41597)
T1 construct: (leukophoresis pack); host or cells: human peripheral blood mononuclear cells (PBMCs) from a normal human leukophoresis pack
Assay: hCCR2 (125-I hMCP-1) small molecule binding assay on human PBMCs
Conditions: 125I-MCP-1, human PBMCs
Source text: The CCR2 antagonist activity of compounds of the invention can be reported as the inhibitor concentration required for 50% inhibition (IC50 values) of specific binding in receptor binding assays using 125I-labeled MCP-1, as ligand, and Peripheral Blood Mononuclear Cells (PBMCs) prepared from normal human whole blood via density gradient centrifugation. Specific binding is defined as the total binding (e.g., total cpm on filters) minus the non-specific binding. Non-specific binding is defined as the amount of cpm still defected in the presence of excess unlabeled competitor (e.g., MCP-1),
Human PBMCs were used to test compounds of the invention in a binding assay. For example, 200,000 to 500,000 cells were incubated with 0.1 to 0.2 nM 125I-labeled MCP-1, with or without unlabeled competitor (10 nM MCP-1) or various concentrations of compounds to be tested. 125I-labeled MCP-1, were prepared by suitable methods or purchased from commercial vendors (Perkin Elmer, Boston Mass.). The binding reactions were performed in 50 to 250 μL of a binding buffer consisting of […] pH 7.2, and 0.1% BSA (bovine serum albumin), for 30 minutes at room temperature. The binding reactions were terminated by harvesting the membranes by rapid filtration through glass fiber filters (Perkin Elmer) which was presoaked in 0.3% polyethyleneimine or Phosphate Buffered Saline (PBS). The filters were rinsed with approximately 600 μL of binding buffer containing, 0.5 M NaCl or PBS, then dried, and the amount of bound radioactivity was determined by counting on a Gamma Counter (Perkin Elmer).
More specifically, the following assay may be employed to determine IC50 values for the compounds of the present invention.
hCCR2 (125-I hMCP-1) Small Molecule Binding Assay
Normal human leukophoresis pack contents, available from Biological Specialty Corporation, Colmar, Pa., is diluted 1:1 with PBS, divided into 50 ml conical tubes (preferably less than 40 mls per tube), and underlayed with 10 mls of Ficoll-Paque PLUS (GE Healthcare 17-1440-02). The tubes are centrifuged at 2800 rpm in a clinical centrifuge at room temperature for 30 mins, with no brake. The plasma layer is suctioned, and the buffycoat layer is collected. The collected buffycoat layer is washed twice with 50 mls PBS, and centrifuged at 1400 rpm with brake. The cells are counted. The cells are then diluted to 1×10^7 cells per ml in binding buffer.
96 well plates (such as, for example, Millipore MultiScreen96 plates) are pre-wet with about 100 μl binding buffer (RPMI+0.1% BSA+20 mM HEPES), and blotted just prior to compound addition.
5 μl of 50 μM test compounds in 100% DMSO are dotted onto U-bottom polypropylene 96-well plates.
245 μl per well of Binding Buffer is added to each well for 1 μM compound concentration in 2% DMSO.
50 μl of 1 μM compound is transferred to pre-wetted Millipore plates. 50 μl per well of 1×10E7 cells per ml of freshly prepared human PBMCs are added.
The samples are pre-incubated at room temperature for 30 minutes or 1 hour.
50 μl of 450 pM 125-I-hMCP-1 (Perkin-Elmer/NEN cat#NEX332025UC) is added for a final concentration 125-I-hMCP-1 of 150 pM per well.
The final test compound concentration is 0.333 uM in 150 μl total volume with 0.67% DMSO in all wells. Controls for this assay consist of 0% inhibition and 100% inhibition with 1 uM hMCP-1 (saturating conditions). All wells are run in duplicate. Controls may be in replicates of eight.
The samples are incubated at room temperature for 30 minutes.
The buffer is suctioned through the Millipore plates. The plates are washed three times with Wash Buffer (PRMI+0.1% BSA+20 mM HEPES+ 0.4 M NaC).
The plate underdrain is removed. The plate filters are allowed to dry. The filters are then punched out into plastic tubes.
Finally, the sample is counted an a Gamma Counter.
All IC50 plates were repeated for an n=2.
The following table summarizes the IC50 values identified through the described assay.

[1] = 30 min preincubation, read-out: IC50 (nM) 30 min preinc
[2] = 1 hr preincubation, read-out: IC50 (nM) 1 hr preinc

T1 sequence (P41597 whole entry): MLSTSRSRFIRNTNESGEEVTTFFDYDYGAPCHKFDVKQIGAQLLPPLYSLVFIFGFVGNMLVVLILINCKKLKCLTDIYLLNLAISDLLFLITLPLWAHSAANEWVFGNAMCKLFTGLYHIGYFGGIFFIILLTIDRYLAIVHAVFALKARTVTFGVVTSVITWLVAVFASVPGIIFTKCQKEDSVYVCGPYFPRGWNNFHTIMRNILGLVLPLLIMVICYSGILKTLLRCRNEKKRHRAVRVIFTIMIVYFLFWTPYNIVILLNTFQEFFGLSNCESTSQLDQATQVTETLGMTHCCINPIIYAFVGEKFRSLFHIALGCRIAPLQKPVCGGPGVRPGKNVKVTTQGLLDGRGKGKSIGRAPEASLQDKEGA

Row | IC50 [1] | IC50 [2] | SMILES
1 | 37.6 nM | 8.5 nM | CO[C@@H]1COCC[C@@H]1N[C@@H]1CC[C@@](C(=O)N2C[C@@H]3C[C@H]2CN3c2cc(C(F)(F)F)cnn2)(C(C)C)C1 [Example 18, 1,5-anhydro-2,3-dideoxy-3-{[(1R,3S)-3-isopropyl-3-({(1S,4S)-5-[5-(trifluoromethyl)pyridazin-3-yl]-2,5-diazabicyclo[2.2.1]hept-2-yl}carbonyl)cyclopentyl]amino}-4-O-methyl-D-erythro-pentitol]
2 | 20.4 nM | 6.35 nM | CO[C@@H]1COCC[C@@H]1N[C@@H]1CC[C@@](C(=O)N2C[C@@H]3C[C@H]2CN3c2cc(C(F)(F)F)nc(C(F)(F)F)c2)(C(C)C)C1 [Example 19, 1,5-anhydro-3-{[(1R,3S)-3-isopropyl-3-({(1S,4S)-5-[2,6-bis(trifluoromethyl)pyridin-4-yl]-2,5-diazabicyclo[2.2.1]hept-2-yl}carbonyl)-3-isopropylcyclopentyl]amino}-2,3-dideoxy-4-O-methyl-D-erythro-pentitol]
3 | 8.59 nM | – | CO[C@@H]1COCC[C@@H]1N[C@@H]1CC[C@@](C(=O)N2C[C@@H]3C[C@H]2CN3c2nccc(C(F)(F)F)c2F)(C(C)C)C1 [Example 20, 1,5-anhydro-2,3-dideoxy-3-{[(1R,3S)-3-({(1S,4S)-5-[3-fluoro-4-(trifluoromethyl)pyridin-2-yl]-2,5-diazabicyclo[2.2.1]hept-2-yl}carbonyl)-3-isopropylcyclopentyl]amino}-4-O-methyl-D-erythro-pentitol]
4 | – | 3.1 nM | CO[C@@H]1COCC[C@@H]1N[C@@H]1CC[C@@](C(=O)N2C[C@@H]3C[C@H]2CN3c2cc(C(F)(F)F)cc(C)n2)(C(C)C)C1 [Example 21, 1,5-anhydro-2,3-dideoxy-3-{[(1R,3S)-3-isopropyl-3-({(1S,4S)-5-[6-methyl-4-(trifluoromethyl)pyridin-2-yl]-2,5-diazabicyclo[2.2.1]hept-2-yl}carbonyl)cyclopentyl]amino}-4-O-methyl-D-erythro-pentitol]
5 | – | 1.1 nM | CO[C@@H]1COCC[C@@H]1N[C@@H]1CC[C@@](C(=O)N2C[C@@H]3C[C@H]2CN3c2cccc(C(F)(F)F)c2)(C(C)C)C1 [Example 22, 1,5-anhydro-2,3-dideoxy-3-{[(1R,3S)-3-isopropyl-3-({(1S,4S)-5-[3-(trifluoromethyl)phenyl]-2,5-diazabicyclo[2.2.1]hept-2-yl}carbonyl)cyclopentyl]amino}-4-O-methyl-D-erythro-pentitol]
6 | – | 0.94 nM | CO[C@@H]1COCC[C@@H]1N[C@@H]1CC[C@@](C(=O)N2C[C@@H]3C[C@H]2CN3c2cc(F)cc(C(F)(F)F)c2)(C(C)C)C1 [Example 23, 1,5-anhydro-2,3-dideoxy-3-{[(1R,3S)-3-({(1S,4S)-5-[3-fluoro-5-(trifluoromethyl)phenyl]-2,5-diazabicyclo[2.2.1]hept-2-yl}carbonyl)-3-isopropylcyclopentyl]amino}-4-O-methyl-D-erythro-pentitol]
7 | 79.7 nM | 8.87 nM | CO[C@@H]1COCC[C@@H]1N[C@@H]1CC[C@](CC(F)F)(C(=O)N2C[C@@H]3C[C@H]2CN3c2cc(C(F)(F)F)ncn2)C1 [Example 24, 1,5-anhydro-2,3-dideoxy-3-{[(1R,3S)-3-(2,2-difluoroethyl)-3-({(1S,4S)-5-[6-(trifluoromethyl)pyrimidin-4-yl]-2,5-diazabicyclo[2.2.1]hept-2-yl}carbonyl)cyclopentyl]amino}-4-O-methyl-D-erythro-pentitol]
8 | 6.58 nM | 0.93 nM | CO[C@@H]1COCC[C@@H]1N[C@@H]1CC[C@](CC(F)F)(C(=O)N2C[C@@H]3C[C@H]2CN3c2cc(C(F)(F)F)ccn2)C1 [Example 25, 1,5-anhydro-2,3-dideoxy-3-{[(1R,3S)-3-(2,2-difluoroethyl)-3-({(1S,4S)-5-[4-(trifluoromethyl)pyridin-2-yl]-2,5-diazabicyclo[2.2.1]hept-2-yl}carbonyl)cyclopentyl]amino}-4-O-methyl-D-erythro-pentitol]
9 | 29.3 nM | 7.85 nM | CO[C@@H]1COCC[C@@H]1N[C@@H]1CC[C@](CC(F)F)(C(=O)N2C[C@@H]3C[C@H]2CN3c2ccnc(C(F)(F)F)c2)C1 [Example 26, 1,5-anhydro-2,3-dideoxy-3-{[(1R,3S)-3-(2,2-difluoroethyl)-3-({(1S,4S)-5-[2-(trifluoromethyl)pyridin-4-yl]-2,5-diazabicyclo[2.2.1]hept-2-yl}carbonyl)cyclopentyl]amino}-4-O-methyl-D-erythro-pentitol]
10 | 16.2 nM | 2.04 nM | CO[C@@H]1COCC[C@@H]1N[C@@H]1CC[C@](CC(F)F)(C(=O)N2C[C@@H]3C[C@H]2CN3c2nccc(C(F)(F)F)n2)C1 [Example 27, 1,5-anhydro-2,3-dideoxy-3-{[(1R,3S)-3-(2,2-difluoroethyl)-3-({(1S,4S)-5-[4-(trifluoromethyl)pyrimidin-2-yl]-2,5-diazabicyclo[2.2.1]hept-2-yl}carbonyl)cyclopentyl]amino}-4-O-methyl-D-erythro-pentitol]
11 | – | 1.88 nM | CO[C@@H]1COCC[C@@H]1N[C@@H]1CC[C@](CC(F)F)(C(=O)N2C[C@@H]3C[C@H]2CN3c2cccc(C(F)(F)F)n2)C1 [Example 28, 1,5-anhydro-2,3-dideoxy-3-{[(1R,3S)-3-(2,2-difluoroethyl)-3-({(1S,4S)-5-[6-(trifluoromethyl)pyridin-2-yl]-2,5-diazabicyclo[2.2.1]hept-2-yl}carbonyl)cyclopentyl]amino}-4-O-methyl-D-erythro-pentitol]
12 | – | 2.75 nM | CO[C@@H]1COCC[C@@H]1N[C@@H]1CC[C@](CC(F)F)(C(=O)N2C[C@@H]3C[C@H]2CN3c2cncc(C(F)(F)F)n2)C1 [Example 29, 1,5-anhydro-2,3-dideoxy-3-{[(1R,3S)-3-(2,2-difluoroethyl)-3-({(1S,4S)-5-[6-(trifluoromethyl)pyrazin-2-yl]-2,5-diazabicyclo[2.2.1]hept-2-yl}carbonyl)cyclopentyl]amino}-4-O-methyl-D-erythro-pentitol]
13 | 32.9 nM | 11.8 nM | CO[C@@H]1COCC[C@@H]1N[C@@H]1CC[C@](CC(F)F)(C(=O)N2C[C@@H]3C[C@H]2CN3c2ccnc(C(F)(F)F)n2)C1 [Example 30, 1,5-anhydro-2,3-dideoxy-3-{[(1R,3S)-3-(2,2-difluoroethyl)-3-({(1S,4S)-5-[2-(trifluoromethyl)pyrimidin-4-yl]-2,5-diazabicyclo[2.2.1]hept-2-yl}carbonyl)cyclopentyl]amino}-4-O-methyl-D-erythro-pentitol]
14 | – | 6.35 nM | CO[C@@H]1COCC[C@@H]1N[C@@H]1CC[C@](CC(F)F)(C(=O)N2C[C@@H]3C[C@H]2CN3c2cc(C(F)(F)F)cnn2)C1 [Example 31, 1,5-anhydro-2,3-dideoxy-3-{[(1R,3S)-3-(2,2-difluoroethyl)-3-({(1S,4S)-5-[5-(trifluoromethyl)pyridazin-3-yl]-2,5-diazabicyclo[2.2.1]hept-2-yl}carbonyl)cyclopentyl]amino}-4-O-methyl-D-erythro-pentitol]
15 | 13.8 nM | 11.7 nM | CO[C@@H]1COCC[C@@H]1N[C@@H]1CC[C@](CC(F)(F)F)(C(=O)N2C[C@@H]3C[C@H]2CN3c2cc(C(F)(F)F)ncn2)C1 [Example 32, 1,5-anhydro-2,3-dideoxy-4-O-methyl-3-{[(1R,3S)-3-(2,2,2-trifluoroethyl)-3-({(1S,4S)-5-[6-(trifluoromethyl)pyrimidin-4-yl]-2,5-diazabicyclo[2.2.1]hept-2-yl}carbonyl)cyclopentyl]amino}-D-erythro-pentitol]

Reference: US8946413B2 (Pfizer Inc., priority 2008, dated 2015)
